Measurements reported in paper PMC11165489, “Polyketide Trimming Shapes Dihydroxynaphthalene‐Melanin and Anthraquinone Pigments” (Advanced Science, 2024).

Assays:
Type in all cases: binding
[1] = target: T1, PlAntI (Photorhabdus laumondii, UniProt Q7MZT8); test: X-ray crystal structure; mass spectrometry; conditions: covalent; Ser245 converted to dehydroalanine, inhibitor itself eliminated; 1.8 A
T1 construct: gene plu4186; crystallised enzyme; catalytic Ser245, His355, Asp326; construct and host only in supplement
T1 sequence (Q7MZT8 1-384): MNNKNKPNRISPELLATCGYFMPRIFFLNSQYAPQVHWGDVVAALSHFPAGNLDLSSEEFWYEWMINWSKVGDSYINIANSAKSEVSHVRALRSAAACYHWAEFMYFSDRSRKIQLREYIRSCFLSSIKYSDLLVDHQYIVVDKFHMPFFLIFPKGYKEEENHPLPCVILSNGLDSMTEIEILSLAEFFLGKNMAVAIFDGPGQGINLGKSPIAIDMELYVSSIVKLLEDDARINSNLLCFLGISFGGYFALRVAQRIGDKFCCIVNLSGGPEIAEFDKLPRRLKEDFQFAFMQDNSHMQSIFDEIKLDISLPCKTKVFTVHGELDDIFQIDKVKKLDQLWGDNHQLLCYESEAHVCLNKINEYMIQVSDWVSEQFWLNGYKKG

[2] = target: T2, Wdyg1p (Exophiala dermatitidis, UniProt Q6BCB5); test: X-ray crystal structure
T2 construct: gene yg1; homodimer; N-domain residues 1-139, C-domain residues 144-393; active-site Ser256, His378; construct and host only in supplement

[3] = target: T3, Afyg1p (Aspergillus fumigatus, UniProt Q4WZB3); test: X-ray crystal structure; conditions: reaction product in specificity pocket; 1.7 A
T3 construct: gene ayg1; homodimer; active-site Ser257, His380, Asp352; construct and host only in supplement
T3 sequence (Q4WZB3 2-406): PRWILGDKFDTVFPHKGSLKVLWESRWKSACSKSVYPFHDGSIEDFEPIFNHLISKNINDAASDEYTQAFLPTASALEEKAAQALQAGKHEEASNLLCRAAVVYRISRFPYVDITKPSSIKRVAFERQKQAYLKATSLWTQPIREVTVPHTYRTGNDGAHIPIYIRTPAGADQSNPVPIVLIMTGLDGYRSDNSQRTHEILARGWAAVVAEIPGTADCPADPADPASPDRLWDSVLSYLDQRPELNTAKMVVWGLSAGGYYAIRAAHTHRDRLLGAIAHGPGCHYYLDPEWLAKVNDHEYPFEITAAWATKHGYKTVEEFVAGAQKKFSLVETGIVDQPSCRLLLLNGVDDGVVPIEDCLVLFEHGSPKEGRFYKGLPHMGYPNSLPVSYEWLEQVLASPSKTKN

T2 sequence (Q6BCB5 entry or part of it): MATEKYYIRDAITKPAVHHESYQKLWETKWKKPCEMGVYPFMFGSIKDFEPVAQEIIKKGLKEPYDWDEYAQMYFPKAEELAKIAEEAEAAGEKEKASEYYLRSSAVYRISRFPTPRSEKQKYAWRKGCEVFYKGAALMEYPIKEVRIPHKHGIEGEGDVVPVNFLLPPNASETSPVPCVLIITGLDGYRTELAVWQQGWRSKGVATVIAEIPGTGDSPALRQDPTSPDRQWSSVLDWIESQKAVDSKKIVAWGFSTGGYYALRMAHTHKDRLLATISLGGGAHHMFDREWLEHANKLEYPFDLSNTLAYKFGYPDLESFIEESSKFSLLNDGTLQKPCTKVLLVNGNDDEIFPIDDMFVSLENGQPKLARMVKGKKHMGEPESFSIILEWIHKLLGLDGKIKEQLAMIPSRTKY

What does the source list for O=S(=O)(F)c1ccccc1 [PSF, phenyl‐SF]?
X-ray crystal structure; mass spectrometry [1]: treatment of PlAntI with PMSF (*) or PSF (^#) appears to also introduce a DHA; X-ray crystal structure ([2]; covalent, Ser256 converted to dehydroalanine, inhibitor itself eliminated, 1.85 A): treatment of Wdyg1p with PMSF (*) or PSF (^#) leads to the β‐elimination mediated conversion

For Oc1cc(O)c2c(O)cc(O)cc2c1 [THN, 1,3,6,8‐tetrahydroxynaphthalene], which X-ray crystal structure ([2]; reaction product in specificity pocket, 1.95 A) is on record?
The X-ray crystal structure was “Wdyg1p crystal structure in complex with its product, THN (Wdyg1p:THN, PDB ID: 8QD9”.

What about the X-ray crystal structure [3] of the same compound?
Its X-ray crystal structure is “the structure of Afyg1p in complex with its reaction product THN was analyzed”.
